Data taken from article PMC12019328, “Discovery of an ApoE4-targeted small-molecule SirT1 enhancer for the treatment of Alzheimer’s disease” (Scientific Reports, 2025).
Several values for one entry are separate records, joined by “and”; a condition that tells them apart may be missing. Equal values may be shown once.

How the values were obtained:
[1] = tested on: SirT1 protein in N2a-E4 cells; assay: SirT1 protein levels in N2a-E4 cells (AlphaLISA); type: cell-based, murine; conditions: N2a-E4 cells, 5 µM, 24 h, vs DMSO control
Procedure: Relative SirT1 mRNA and protein enhancement by racemate DDL-214 and enantiomers DDL-218 and − 219 was determined in murine neuroblastoma cells stably transfected with ApoE4 (N2a-E4)[25]. All test compounds in DMSO were prepared at 2x the final concentration in DMEM supplemented with 10% fetal bovine serum (FBS) and 1% pen-strep (PS) and 50 µL of each loaded into individual wells of a 96-well plate. Previously cultured N2a-E4 were then trypsinized, harvested, centrifuged, and counted; then 50 µL of cell suspension adjusted to 400 cells/µL was added to each well. The plate was then incubated at 37 °C, 5% CO2 for 48 h. Cells were treated with DDL-214, DDL-218, or DDL-219 at 5 µM final then incubated for 24 h. After incubation, the cells were lysed with 50 µL of ice-cold lysis buffer (0.4% SDS, 3.5% Triton X-100, 0.02% sodium deoxycholate, 28 mM TRIS pH 8) complemented with 1X final Halt™ Protease and Phosphatase Inhibitor Cocktail (Thermo Fisher catalog # 78442), placed on ice for 10 min and at -80 °C, followed by 3 freeze/thaw cycles.
An AlphaLISA comprising streptavidin donor beads (Revvity catalog # 6760002 S), biotinylated anti-SirT1 N-terminal antibody (monoclonal 19A7AB4, Abcam catalog # ab110304), and acceptor beads (Revvity catalog # 6772001) conjugated to the anti-SirT1 C-terminal antibody (monoclonal 1F3, Abcam catalog # ab104833) was used to determine SirT1 protein levels. […] The plates were read using an Envision plate reader.
Figure S3B. […] Compound treatment was done at 5 and 50 µM. SirT1 levels were measured by AlphaLISA followed and normalized to protein […]
Brain tissue was homogenized in PBS (pH 7.4) (1: 3 weight(mg)/volume(µL)) and the protein concentration of was determined using the Micro BCA™ Protein Assay Kit (Thermo Fisher Scientific, Cat#23235). […]
The % of the unbound drug (fu,bound) was calculated using the following equation: fu,bound = [normalized peak area in buffer side / normalized peak area in brain side] x 100 Liver Microsome Stability [t1/2 (min)] […]

[2] = In vivo pharmacokinetic analysis, brain levels after oral gavage; design: species or system C57BL/6J mice; conditions: for brain levels: single time point one hour, oral gavage 30 mg/Kg, n = 1
Procedure: […] One hour later, mice were euthanized by pentobarbital over-anesthesia and trans-cardial collection of blood for isolation of plasma by centrifugation at 10,000 x g for 10 min at 4 °C. Brain tissue was collected for analysis, frozen on dry ice and stored at -80 °C before analysis.
For LC/MS/MS analysis, tissue samples were homogenized in a bead beater using 5 volumes of ice-cold 80% acetonitrile (1/5; mg of tissue/ µL of 80% ACN). Solutions were clarified by centrifugation (16,000 x g, 5 min) and the supernatants were transferred to new tubes and lyophilized. Samples were reconstituted in 100 µL of 50/50/0.1 (water/acetonitrile/formic acid) before analysis via liquid chromatography-tandem mass spectrometry.
A 6460 triple quadrupole mass spectrometer (Agilent Technologies) coupled to a 1290 Infinity HPLC system (Agilent Technologies) with a Phenomenex analytical column (Kinetex 1.7 μm C18 100 Å 100 × 2.1 mm) was used for HPLC. The HPLC method utilized a mixture of solvent A (99.9/1 water/formic acid) and solvent B (99.9/1 acetonitrile/formic acid) and a gradient was used for the elution of the compounds (min/%B: 0/20, 3/20, 19/99, 20/99, 21/20, 30/20).
An internal standard (IS; Reserpine) was added to every sample to account for compound loss during sample processing. Standards were made in drug naïve brain and plasma with increasing amounts of DDL-214- (S1,S2: 0.1 pmol/ S3,S4: 1 pmol/ S5,S6: 10 pmol/ S7,S8: 100 pmol/ S9,S10: 1000 pmol). The standard curve was made by plotting the amount of each compound per standard vs. the ratio of measured chromatographic peak areas corresponding to DDL-214 (DDL-214 -/Reserpine). The trendline equation was then used to calculate the absolute concentrations of DDL-214/-218/-219 in brain tissue and plasma.

[3] = Observation of mice behavior in the PK study; type: in vivo; conditions: oral gavage 10 or 30 mg/Kg
Procedure: C57BL/6J mice were administered DDL-214, -218, or -219 (n = 3 per compound) by oral gavage at a dose of 30 mg/kg in a volume of 5 mL/Kg based on mouse weight. One hour later, mice were euthanized by pentobarbital over-anesthesia and trans-cardial collection of blood for isolation of plasma by centrifugation at 10,000 x g for 10 min at 4 °C. Brain tissue was collected for analysis, frozen on dry ice and stored at -80 °C before analysis.

[4] = tested on: SirT1 mRNA in Kelly cells; assay: SirT1 mRNA in Kelly neuroblastoma cells; type: cell-based, human; conditions: 5 µM, 24 h, vs DMSO control
Procedure: Human neuroblastoma ‘Kelly’ cells (genotype APOE3/APOE4) were plated in 96-well plates at 50K cells per well and were grown overnight in RPMI 1640 supplemented with 2 mM Glutamine, 10% FBS and 1% Pen-Strep. Cells were treated with 5 µM DDL-214, -218, or -219; or DMSO vehicle (n = 8 per compound). Twenty-four hours later, medium was removed, cells washed and lysed as described above for N2a-E4 cells.
Total RNA was isolated from cells or brain tissue (Qiagen RNEasy kit). Total RNA (0.5–1.0 µg) mRNA was then converted to cDNA (SuperScript™ III First-Strand Synthesis SuperMix kit; Thermo Fisher), and gene mRNA levels were measured using a gene-specific qRT-PCR Taqman assays (Thermo Fisher). Gene mRNA levels were normalized to GAPDH mRNA levels measured either in the same cDNA sample or in the same qPCR reaction using multiplexing of gene-of-interest/VIC and GAPDH/FAM, normalized by the delta-delta-Ct method.

SMILES | SirT1 protein levels [1] | brain Cmax ([2]; oral 30 mg/Kg, time course study, 30 mg/kg) | brain Cmax ([2]; oral gavage 10 mg/Kg, wildtype mouse, at one hour, 10 mg/kg) | brain levels ([2]; 30 mg/kg) | changes in mice behavior indicative of drug-induced toxicity [3] | SirT1 mRNA [4]
CC(N)C(=O)OC(C)(C)Cc1ccncc1 (centres unmarked) [DDL-214] | increased SirT1 protein levels | ~ 9400 ng/g and 42.3 µM | 1270 ng/g and 5.7 µM | ~ 3000 ng/g and 13.5 µM | No notable changes in mice behavior | higher than DMSO control, but the difference was not significant
CC(N)C(=O)OC(C)(C)Cc1ccncc1 (centres unmarked) [DDL-219] |  |  |  | ~ 6500 ng/g and 29.2 µM | No notable changes in mice behavior | 
